Data from paper PMC6321168, “Comparative Study on Excretive Characterization of Main Components in Herb Pair Notoginseng-Safflower and Single Herbs by LC–MS/MS” (Pharmaceutics, 2018).

Assay: Urinary excretion study in rats after oral NS, SF or CNS (LC–MS/MS)
Format: in vivo
Conditions: for concentration at 2 h / concentration at 4 h / concentration at 8 h / concentration at 12 h / concentration at 24 h / concentration at 36 h / concentration at 48 h / concentration at 72 h / concentration at 96 h / concentration at 120 h / concentration at 6 h: male, Sprague Dawley, rat, urine, oral; for Accumulative excretion amount / Accumulative excretion percentage / Excretion amount: rat urine
Summary of the method: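 Analytes were quantified by UFLC with negative electrospray MRM detection in urine collected up to 120 h. Doses were oral: 60 mg/kg NS, 50 mg/kg SF, or the combination, each to six fasted male rats. Results are reported as % cumulative excretion relative to the amount ingested.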

Question: For `CC(C)=CCC[C@](C)(O[C@@H]1O[C@H](CO)[C@@H](O)[C@H](O)[C@H]1O)[C@H]1CC[C@]2(C)[C@@H]1[C@H](O)C[C@@H]1[C@@]3(C)CC[C@H](O)C(C)(C)[C@@H]3[C@@H](O[C@@H]3O[C@H](CO)[C@@H](O)[C@H](O)[C@H]3O)C[C@]12C` [ginsenoside Rg1], which concentration at 2 h (60 mg/kg, oral NS 60 mg/kg, 2 h) is on record?
Answer: 3360 ± 7020 ng/mL

Question: And the concentration at 4 h (60 mg/kg, oral NS 60 mg/kg, 4 h)?
Answer: 1680 ± 1800 ng/mL

Question: And the concentration at 8 h (60 mg/kg, oral NS 60 mg/kg, 8 h)?
Answer: 1140 ± 1230 ng/mL

Question: What about the concentration at 12 h (60 mg/kg, oral NS 60 mg/kg, 12 h) of the same compound?
Answer: 727 ± 171 ng/mL

Question: What about the concentration at 24 h (60 mg/kg, oral NS 60 mg/kg, 24 h) of the same compound?
Answer: 135 ± 209 ng/mL

Question: What about the concentration at 36 h (60 mg/kg, oral NS 60 mg/kg, 36 h) of the same compound?
Answer: 115 ± 151 ng/mL

Question: And the concentration at 48 h (60 mg/kg, oral NS 60 mg/kg, 48 h)?
Answer: 100 ± 171 ng/mL

Question: And the concentration at 72 h (60 mg/kg, oral NS 60 mg/kg, 72 h)?
Answer: 178 ± 382 ng/mL

Question: What about the concentration at 96 h (60 mg/kg, oral NS 60 mg/kg, 96 h) of the same compound?
Answer: 85 ± 159 ng/mL

Question: What about the concentration at 120 h (60 mg/kg, oral NS 60 mg/kg, 120 h) of the same compound?
Answer: 59 ± 105 ng/mL

Question: What about the concentration at 2 h (oral CNS 110 mg/kg, 2 h) of the same compound?
Answer: 1510 ± 1440 ng/mL

Question: And the concentration at 4 h (oral CNS 110 mg/kg, 4 h)?
Answer: 1690 ± 2340 ng/mL

Question: What about the concentration at 6 h (oral CNS 110 mg/kg, 6 h) of the same compound?
Answer: 544 ± 216 ng/mL

Question: And the concentration at 8 h (oral CNS 110 mg/kg, 8 h)?
Answer: 835 ± 697 ng/mL

Question: And the concentration at 12 h (oral CNS 110 mg/kg, 12 h)?
Answer: 789 ± 937 ng/mL

Question: What about the concentration at 24 h (oral CNS 110 mg/kg, 24 h) of the same compound?
Answer: 2350 ± 5830 ng/mL

Question: And the concentration at 36 h (oral CNS 110 mg/kg, 36 h)?
Answer: 228 ± 361 ng/mL

Question: What about the concentration at 48 h (oral CNS 110 mg/kg, 48 h) of the same compound?
Answer: 65 ± 82 ng/mL

Question: What about the concentration at 72 h (oral CNS 110 mg/kg, 72 h) of the same compound?
Answer: 93 ± 156 ng/mL

Question: What about the concentration at 96 h (oral CNS 110 mg/kg, 96 h) of the same compound?
Answer: 46 ± 53 ng/mL

Question: What about the concentration at 120 h (oral CNS 110 mg/kg, 120 h) of the same compound?
Answer: 80 ± 174 ng/mL

Question: And the concentration at 6 h (oral NS 60 mg/kg, 6 h)?
Answer: 1440 ± 1460 ng/mL

Question: And the Accumulative excretion amount (oral CNS 110 mg/kg, 2 h)?
Answer: 1.881 ± 1.001 µg

Question: And the Accumulative excretion percentage (oral CNS 110 mg/kg, 2 h)?
Answer: 0.066±0.032%

Question: And the Excretion amount (oral CNS 110 mg/kg, 2 h)?
Answer: 1.881 ± 1.001 µg

Question: What about the Accumulative excretion amount (oral CNS 110 mg/kg, 4 h) of the same compound?
Answer: 3.382 ± 2.188 µg

Question: And the Accumulative excretion percentage (oral CNS 110 mg/kg, 4 h)?
Answer: 0.111±0.072%

Question: And the Excretion amount (oral CNS 110 mg/kg, 4 h)?
Answer: 2.002 ± 1.609 µg

Question: And the Accumulative excretion amount (oral CNS 110 mg/kg, 6 h)?
Answer: 3.994 ± 2.061 µg

Question: And the Accumulative excretion percentage (oral CNS 110 mg/kg, 6 h)?
Answer: 0.132±0.073%

Question: And the Excretion amount (oral CNS 110 mg/kg, 6 h)?
Answer: 0.816 ± 0.264 µg

Question: What about the Accumulative excretion amount (oral CNS 110 mg/kg, 8 h) of the same compound?
Answer: 4.725 ± 2.486 µg

Question: And the Accumulative excretion percentage (oral CNS 110 mg/kg, 8 h)?
Answer: 0.155±0.084%

Question: What about the Excretion amount (oral CNS 110 mg/kg, 8 h) of the same compound?
Answer: 1.169 ± 0.913 µg

Question: And the Accumulative excretion amount (oral CNS 110 mg/kg, 12 h)?
Answer: 5.430 ± 2.374 µg

Question: What about the Accumulative excretion percentage (oral CNS 110 mg/kg, 12 h) of the same compound?
Answer: 0.188±0.080%

Question: And the Excretion amount (oral CNS 110 mg/kg, 12 h)?
Answer: 0.805 ± 0.300 µg

Question: And the Accumulative excretion amount (oral CNS 110 mg/kg, 24 h)?
Answer: 8.052 ± 5.572 µg

Question: And the Accumulative excretion percentage (oral CNS 110 mg/kg, 24 h)?
Answer: 0.263±0.182%

Question: What about the Excretion amount (oral CNS 110 mg/kg, 24 h) of the same compound?
Answer: 2.622 ± 5.710 µg

Question: And the Accumulative excretion amount (oral CNS 110 mg/kg, 36 h)?
Answer: 8.388 ± 5.927 µg

Question: And the Accumulative excretion percentage (oral CNS 110 mg/kg, 36 h)?
Answer: 0.274±0.195%

Question: What about the Excretion amount (oral CNS 110 mg/kg, 36 h) of the same compound?
Answer: 0.336 ± 0.421 µg

Question: What about the Accumulative excretion amount (oral CNS 110 mg/kg, 48 h) of the same compound?
Answer: 8.689 ± 6.056 µg

Question: What about the Accumulative excretion percentage (oral CNS 110 mg/kg, 48 h) of the same compound?
Answer: 0.285±0.202%

Question: What about the Excretion amount (oral CNS 110 mg/kg, 48 h) of the same compound?
Answer: 0.301 ± 0.361 µg

Question: And the Accumulative excretion amount (oral CNS 110 mg/kg, 72 h)?
Answer: 8.87 ± 6.051 µg

Question: What about the Accumulative excretion percentage (oral CNS 110 mg/kg, 72 h) of the same compound?
Answer: 0.293±0.206%

Question: What about the Excretion amount (oral CNS 110 mg/kg, 72 h) of the same compound?
Answer: 0.185 ± 0.312 µg

Question: And the Accumulative excretion amount (oral CNS 110 mg/kg, 96 h)?
Answer: 8.966 ± 6.090 µg

Question: And the Accumulative excretion percentage (oral CNS 110 mg/kg, 96 h)?
Answer: 0.292±0.204%

Question: What about the Excretion amount (oral CNS 110 mg/kg, 96 h) of the same compound?
Answer: 0.091 ± 0.106 µg

Question: What about the Accumulative excretion amount (oral CNS 110 mg/kg, 120 h) of the same compound?
Answer: 9.027 ± 6.117 µg

Question: And the Accumulative excretion percentage (oral CNS 110 mg/kg, 120 h)?
Answer: 0.292±0.206%

Question: What about the Excretion amount (oral CNS 110 mg/kg, 120 h) of the same compound?
Answer: 0.061 ± 0.081 µg

Question: And the Accumulative excretion amount (oral NS 60 mg/kg, 2 h)?
Answer: 4.985 ± 1.411 µg

Question: What about the Accumulative excretion percentage (oral NS 60 mg/kg, 2 h) of the same compound?
Answer: 0.142±0.045%

Question: What about the Excretion amount (oral NS 60 mg/kg, 2 h) of the same compound?
Answer: 4.985 ± 1.411 µg

Question: What about the Accumulative excretion amount (oral NS 60 mg/kg, 4 h) of the same compound?
Answer: 6.610 ± 2.052 µg

Question: And the Accumulative excretion percentage (oral NS 60 mg/kg, 4 h)?
Answer: 0.193±0.061%

Question: What about the Excretion amount (oral NS 60 mg/kg, 4 h) of the same compound?
Answer: 2.844 ± 0.973 µg

Question: And the Accumulative excretion amount (oral NS 60 mg/kg, 6 h)?
Answer: 9.709 ± 2.893 µg

Question: And the Accumulative excretion percentage (oral NS 60 mg/kg, 6 h)?
Answer: 0.285±0.086%

Question: What about the Excretion amount (oral NS 60 mg/kg, 6 h) of the same compound?
Answer: 3.616 ± 2.575 µg

Question: And the Accumulative excretion amount (oral NS 60 mg/kg, 8 h)?
Answer: 11.931 ± 4.568 µg

Question: And the Accumulative excretion percentage (oral NS 60 mg/kg, 8 h)?
Answer: 0.348±0.137%

Question: What about the Excretion amount (oral NS 60 mg/kg, 8 h) of the same compound?
Answer: 3.890 ± 2.477 µg

Question: And the Accumulative excretion amount (oral NS 60 mg/kg, 12 h)?
Answer: 15.061 ± 7.022 µg

Question: What about the Accumulative excretion percentage (oral NS 60 mg/kg, 12 h) of the same compound?
Answer: 0.439±0.200%

Question: What about the Excretion amount (oral NS 60 mg/kg, 12 h) of the same compound?
Answer: 3.130 ± 2.715 µg

Question: And the Accumulative excretion amount (oral NS 60 mg/kg, 24 h)?
Answer: 15.697 ± 7.182 µg

Question: What about the Accumulative excretion percentage (oral NS 60 mg/kg, 24 h) of the same compound?
Answer: 0.451±0.202%

Question: What about the Excretion amount (oral NS 60 mg/kg, 24 h) of the same compound?
Answer: 0.636 ± 0.590 µg

Question: And the Accumulative excretion amount (oral NS 60 mg/kg, 36 h)?
Answer: 16.042 ± 7.062 µg

Question: And the Accumulative excretion percentage (oral NS 60 mg/kg, 36 h)?
Answer: 0.463±0.204%

Question: What about the Excretion amount (oral NS 60 mg/kg, 36 h) of the same compound?
Answer: 0.402 ± 0.338 µg

Question: What about the Accumulative excretion percentage (oral NS 60 mg/kg, 48 h) of the same compound?
Answer: 0.465±0.204%

Question: What about the Excretion amount (oral NS 60 mg/kg, 48 h) of the same compound?
Answer: 0.285 ± 0.276 µg

Question: What about the Accumulative excretion amount (oral NS 60 mg/kg, 72 h) of the same compound?
Answer: 16.417 ± 7.147 µg

Question: And the Accumulative excretion percentage (oral NS 60 mg/kg, 72 h)?
Answer: 0.476±0.208%

Question: What about the Excretion amount (oral NS 60 mg/kg, 72 h) of the same compound?
Answer: 0.091 ± 0.014 µg

Question: What about the Excretion amount (oral NS 60 mg/kg, 96 h) of the same compound?
Answer: 0.062 ± 0.110 µg

Question: What about the Excretion amount (oral NS 60 mg/kg, 120 h) of the same compound?
Answer: 0.062 ± 0.148 µg
